US20260083704A1, “LXR MODULATORS WITH BICYCLIC CORE MOIETY FOR TREATING DYSLIPIDEMIAS” (OrsoBio, Inc., priority 2022, published 2026)

Key:
[1] = target: T1, GST-LXRβ ligand-binding domain (Homo sapiens, UniProt P55055); experiment: TR-FRETβ activity assay (NCoA3 coactivator peptide recruitment); assay type: biochemical; details: 1 μM 24(S)-25-epoxycholesterol prestimulation
T1 construct: amino acids 156-461; NP009052; made in house; host or cells: E. coli
T1 sequence (P55055 156-460 limits assumed): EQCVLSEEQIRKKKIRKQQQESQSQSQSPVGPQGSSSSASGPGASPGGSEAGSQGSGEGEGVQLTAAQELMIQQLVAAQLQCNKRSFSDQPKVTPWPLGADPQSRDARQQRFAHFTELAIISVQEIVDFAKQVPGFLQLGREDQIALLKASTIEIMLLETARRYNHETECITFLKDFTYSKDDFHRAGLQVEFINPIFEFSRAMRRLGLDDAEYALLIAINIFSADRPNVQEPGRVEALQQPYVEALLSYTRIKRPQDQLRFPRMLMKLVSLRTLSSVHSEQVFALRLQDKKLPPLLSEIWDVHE
Outline: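 Inverse-agonist format, with LXR prestimulated by 1 μM 24(S)-25-epoxycholesterol in pH 6.8 Tris/HCl, 240 mM KCl, BSA and Triton. Ten concentrations from 50 μM to 0.002 μM were equilibrated 1 h at 4° C with 76 nM GST-LXRβ LBD and 400 nM biotin-NCoA3 peptide. Peptide recruitment detected by 665/615 nm TR-FRET.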

[2] = target: T2, LXRβ (Homo sapiens, UniProt P55055); experiment: LXR Gal4 reporter transient transfection assay (mammalian two-hybrid, HEK293), LXRβ; assay type: cell-based; details: ligand-binding domain (LBD) of LXRβ, HEK293; read-out: LBD-M2H Gal4β
T2 construct: LXRβ (amino acids 156-461); expressed in transfected cells; host or cells: HEK293
T2 sequence (P55055 156-460): T1 sequence (P55055 156-460 limits assumed)
Description: LXRα and LXRβ activity status was determined via detection of interaction with coactivator and corepressor proteins in mammalian two-hybrid experiments (M2H). For this, via transient transfection the full length (FL) proteins of LXRα (amino acids 1-447; NP005684; SEQ ID NO:1) or LXRβ-(amino acids 1-461; NP009052; SEQ ID NO:2) or the ligand-binding domains (LBD) of LXRα (amino acids 155-447 SEQ ID NO:3) or LXRβ (amino acids 156-461; SEQ ID NO:4) were expressed from pCMV-AD (Stratagene) as fusions to the transcriptional activation domain of NFkB. As cofactors, domains of either the steroid receptor coactivator 1 (SRC1; amino acids 552-887; SEQ ID NO:5) or of the corepressor NCoR (amino acids 1906-2312; NP006302; SEQ ID NO:6) were expressed as fusions to the DNA binding domain of the yeast transcription factor GAL4 (from pCMV-BD; Stratagene). Interaction was monitored via activation of a coexpressed Firefly Luciferase Reporter gene under control of a promoter containing repetitive GAL4 response elements (vector pFRLuc; Stratagene). Transfection efficiency was controlled via cotransfection of constitutively active pRL-CMV Renilla reniformis luciferase reporter (Promega). HEK293 cells were grown in minimum essential medium (MEM) with 2 mM L-glutamine and Earle's balanced salt solution supplemented with 8.3% fetal bovine serum, 0.1 mM non-essential amino acids, 1 mM sodium pyruvate, at 37° C. in 5% CO2. 3.5×10^4 cells/well were plated in 96-well cell culture plates in growth medium supplemented with 8.3% fetal bovine serum for 16-20 h to ˜90% confluency. For transfection, medium was taken off and LXR and cofactor expressing plasmids as well as the reporter plasmids are added in 30 μL OPTIMEM/well including polyethylene-imine (PEI) as vehicle. Typical amounts of plasmids transfected/well: pCMV-AD-LXR (5 ng), pCMV-BD-cofactor (5 ng), pFR-Luc (100 ng), pRL-CMV (0.5 ng). Compound stocks were prepared in DMSO, prediluted in MEM to a total volume of 120 μL, and added 4 h after addition of the transfection mixture (final vehicle concentration not exceeding 0.2%). Cells were incubated for additional 16 h, lysed for 10 min in 1×Passive Lysis Buffer (Promega) and Firefly and Renilla luciferase activities were measured sequentially in the same cell extract using buffers containing D-luciferine and coelenterazine, respectively. Measurements of luminescence were done in a BMG-luminometer.
The potencies of Compound 21/3 and its analog, Compound pre-6/3, against LXRα and LXRβ were evaluated in biochemical binding assays, cellular mammalian two-hybrid (M2H) interaction assays evaluating nuclear receptor co-repressor (NCOR) recruitment, and cellular reporter assays evaluating transcriptional activity (Table 5).

SMILES	EC50 [1]	EC50 [2]
N#Cc1sccc1-c1c(-c2cccs2)n(S(=O)(=O)c2ccc(Cl)cc2)c2cc(O)ccc12 [13/1]	1000 to 10000 nM	< 100 nM
N#Cc1sccc1-c1c(-c2cccs2)n(S(=O)(=O)c2ccc(Cl)cc2)c2ccc(OCCCC(=O)O)cc12 [15/1]	1000 to 10000 nM	100 to 1000 nM
N#Cc1sccc1-c1c(-c2cccs2)n(S(=O)(=O)c2ccc(Cl)cc2)c2ccc(OCCCCC(=O)O)cc12 [15/2]	> 10000 nM	100 to 1000 nM
N#Cc1sccc1-c1c(-c2cccs2)n(S(=O)(=O)c2ccc(Cl)cc2)c2cc(OCCCC(=O)O)ccc12 [15/4]	1000 to 10000 nM	< 100 nM
N#Cc1sccc1-c1c(-c2cccs2)n(S(=O)(=O)c2ccc(Cl)cc2)c2cc(OCCCCC(=O)O)ccc12 [15/5]	1000 to 10000 nM	< 100 nM
COc1ccc(S(=O)(=O)n2c(-c3ccc(CCC(=O)O)cc3)c(-c3ccsc3C#N)c3ccccc32)cc1 [15/6]	1000 to 10000 nM	100 to 1000 nM
N#Cc1ccncc1-c1c(-c2cccs2)n(S(=O)(=O)c2ccc(Cl)cc2)c2ccccc12 [20/2]	1000 to 10000 nM	< 100 nM
O=S(=O)(c1ccc(Cl)cc1)n1c(-c2cccs2)c(-c2ccsc2C(F)F)c2ccccc21 [20/3]	100 to 1000 nM	< 100 nM
N#Cc1cscc1-c1c(-c2cccs2)n(S(=O)(=O)c2ccc(Cl)cc2)c2ccccc12 [20/4]	1000 to 10000 nM	< 100 nM
CS(=O)(=O)c1ccccc1-c1c(-c2cccs2)n(S(=O)(=O)c2ccc(Cl)cc2)c2ccccc12 [20/5]	1000 to 10000 nM	100 to 1000 nM
N#Cc1cc(F)ccc1-c1c(-c2cccs2)n(S(=O)(=O)c2ccc(Cl)cc2)c2ccccc12 [20/6]	100 to 1000 nM	< 100 nM
N#Cc1nccnc1-c1c(-c2cccs2)n(S(=O)(=O)c2ccc(Cl)cc2)c2ccccc12 [20/7]	1000 to 10000 nM	< 100 nM
N#Cc1sccc1-c1c(-c2cccs2)n(S(=O)(=O)c2ccc(F)cc2)c2ccccc12 [20/11]	100 to 1000 nM	< 100 nM
N#Cc1sccc1-c1c(-c2cccs2)n(S(=O)(=O)c2ccc(F)cc2F)c2ccccc12 [20/12]	1000 to 10000 nM	< 100 nM
N#Cc1sccc1-c1c(-c2cccs2)n(S(=O)(=O)c2ccc(Cl)cc2)c2ccccc12 [20/13]	100 to 1000 nM	< 100 nM
COC(=O)CCc1ccc(S(=O)(=O)n2c(-c3cccs3)c(-c3ccsc3C#N)c3ccccc32)cc1 [20/15]	100 to 1000 nM	100 to 1000 nM
COc1ccc(S(=O)(=O)n2c(-c3ccccc3)c(C3=C(C#N)CCCC3)c3ccccc32)cc1 [20/16]	1000 to 10000 nM	100 to 1000 nM
COc1ccc(S(=O)(=O)n2c(-c3ccccc3)c(C3=C(C#N)c4ccccc4CC3)c3ccccc32)cc1 [20/19]	> 10000 nM	100 to 1000 nM
COc1ccc(S(=O)(=O)n2c(-c3ccccc3)c(-c3ccc4ncccc4c3C#N)c3ccccc32)cc1 [20/20]	1000 to 10000 nM	100 to 1000 nM
COc1ccc(S(=O)(=O)n2c(-c3ccccc3)c(-c3ccsc3C)c3ccccc32)cc1 [20/21]	1000 to 10000 nM	< 100 nM
COc1ccc(S(=O)(=O)n2c(-c3ccccc3)c(-c3ccsc3OC)c3ccccc32)cc1 [20/22]	100 to 1000 nM	100 to 1000 nM
COc1ccc(S(=O)(=O)n2c(-c3ccccc3)c(-c3cc(C)sc3C#N)c3ccccc32)cc1 [20/23]	1000 to 10000 nM	100 to 1000 nM

SMILES	EC50 [1]	EC50 [2]
N#Cc1ccc(OCC(=O)O)cc1-c1c(-c2cccs2)n(S(=O)(=O)c2ccc(Cl)cc2)c2ccccc12 [21/1]	1000 to 10000 nM	1000 to 10000 nM
N#Cc1c(OCC(=O)O)cccc1-c1c(-c2cccs2)n(S(=O)(=O)c2ccc(Cl)cc2)c2ccccc12 [21/2]	1000 to 10000 nM	1000 to 10000 nM
N#Cc1sccc1-c1c(-c2cccs2)n(S(=O)(=O)c2ccc(CCC(=O)O)cc2)c2ccccc12 [23/1]	1000 to 10000 nM	< 100 nM
N#Cc1sccc1-c1c(-c2ccc(F)cc2)n(S(=O)(=O)c2ccc(Cl)cc2)c2ccccc12 [26/1]	1000 to 10000 nM	< 100 nM
Cc1ccc(S(=O)(=O)n2c(-c3cccc(-c4cccc(C(=O)O)c4)c3)c(-c3ccsc3C#N)c3ccccc32)cc1 [30/1]	100 to 1000 nM	< 100 nM
Cc1ccc(S(=O)(=O)n2c(-c3cccc(-c4cccc(C(C)(C)C(=O)O)c4)c3)c(-c3ccsc3C#N)c3ccccc32)cc1 [30/2]	1000 to 10000 nM	100 to 1000 nM
N#Cc1sccc1-c1c(-c2cccc(CCCC(=O)O)c2)n(S(=O)(=O)c2ccc(Cl)cc2)c2ccccc12 [30/5]	1000 to 10000 nM	< 100 nM
N#Cc1sccc1-c1c(-c2cccc(N3CC(C(=O)O)C3)n2)n(S(=O)(=O)c2ccc(Cl)cc2)c2ccccc12 [30/6]	1000 to 10000 nM	100 to 1000 nM
N#Cc1sccc1-c1c(-c2ccc(C3CC3C(=O)O)s2)n(S(=O)(=O)c2ccc(Cl)cc2)c2ccccc12 (stereo not shown) [30/8]	1000 to 10000 nM	100 to 1000 nM
N#Cc1sccc1-c1c(-c2cc(Cl)cc(C3CC3C(=O)O)c2)n(S(=O)(=O)c2ccc(Cl)cc2)c2ccccc12 (stereo not shown) [30/9]	1000 to 10000 nM	< 100 nM
N#Cc1sccc1-c1c(-c2cccc(N3CCC(C(=O)O)C3)c2)n(S(=O)(=O)c2ccc(Cl)cc2)c2ccccc12 (stereo not shown) [30/11]	100 to 1000 nM	< 100 nM
N#Cc1sccc1-c1c(-c2cccc(C3CC3C(=O)O)c2)n(S(=O)(=O)C2CC2)c2ccccc12 (stereo not shown) [30/12]	1000 to 10000 nM	100 to 1000 nM
Cc1ccc(S(=O)(=O)n2c(-c3cccc(C4CC4C(=O)O)c3)c(-c3ccsc3F)c3ccccc32)cc1 (stereo not shown) [30/14]	1000 to 10000 nM	100 to 1000 nM
Cc1ccc(S(=O)(=O)n2c(-c3cccc(C4CC4C(=O)O)c3)c(-c3ccc(F)cc3C#N)c3ccccc32)cc1 (stereo not shown) [30/15]	1000 to 10000 nM	100 to 1000 nM
CS(=O)(=O)NC(=O)C1CC1c1cccc(-c2c(-c3ccsc3C#N)c3ccccc3n2S(=O)(=O)c2ccc(Cl)cc2)c1 (stereo not shown) [32/1]	100 to 1000 nM	< 100 nM
N#Cc1sccc1-c1c(-c2cccs2)n(S(=O)(=O)c2ccc(Cl)cc2)c2cc(CCC(=O)O)c(O)cc12 [Compound 17]	> 10000 nM	1000 to 10000 nM
O=C(O)c1sccc1-c1c(-c2cccs2)n(S(=O)(=O)c2ccc(Cl)cc2)c2ccccc12 [Compound 21]	> 10000 nM	1000 to 10000 nM
NC(=O)c1sccc1-c1c(-c2cccs2)n(S(=O)(=O)c2ccc(Cl)cc2)c2ccccc12 [Compound 22]	1000 to 10000 nM	100 to 1000 nM
N#Cc1sccc1-c1c(-c2cccs2)n(S(=O)(=O)C2CCCCC2)c2ccccc12 [Compound 24]	1000 to 10000 nM	< 100 nM
N#Cc1sccc1-c1c(-c2ccccc2)n(S(=O)(=O)c2ccc(Cl)cc2)c2ccccc12 [Compound 26]	100 to 1000 nM	< 100 nM
N#Cc1sccc1-c1c(-c2ccccc2)n(S(=O)(=O)c2ccc(OCC(=O)O)cc2)c2ccccc12 [Compound 27]	1000 to 10000 nM	100 to 1000 nM
N#Cc1sccc1-c1c(-c2cccc(OCCC(=O)O)n2)n(S(=O)(=O)c2ccc(Cl)cc2)c2ccccc12 [Compound 31]	1000 to 10000 nM	100 to 1000 nM
